Experiment [1] relates to isolated hearts from adult male Sprague-Dawley rats. Put plainly: Infarct size in isolated hearts subjected to ischemia/reperfusion (Langendorff, TTC staining). Further details: species or system rat. The note with it: 50 nM peptide in reperfusion, 30 min global ischemia, ex vivo. On the procedure: The cardioprotective effects of retro-inverse angiotensin-(1-9) were also investigated in isolated hearts from adult male Sprague-Dawley rats (250-300 g) subjected to ischemia/reperfusion (I/R) using a Langendorff procedure. Rats were anesthetized with pentobarbital [80 mg/kg intraperitoneally (i.p.)] and heparin 100 U/kg was injected into the right atria. Hearts were rapidly harvested and perfused through the aorta with Krebs-Henseleit solution containing NaCl 128.3 mM, KCl 4.7 mM, CaCl2 1.35 mM, MgSO4 1.1 mM, NaHCO3 20.2 mM, NaH2PO4 0.4 mM and glucose 11.1 mM, pH 7.4 (equilibrated with a gas mixture of 95% O2 and 5% CO2 at 37° C.), using a peristaltic pump (Gilson Miniplus 3, France). A latex balloon connected to a pressure transducer was placed through the left atrium and mitral valve into the left ventricle. The balloon was filled with saline to determine isovolumetric intraventricular pressure. Perfusion flow was 10-14 mL/min. Hearts were placed in a heated chamber and paced at 240-300 beats/min with platinum electrodes, using a Grass stimulator (pulses of 5V, 1 ms). […] The infarct size was determined using 2,3,5-triphenyltetrazolium chloride (TTC) staining. […]

In experiment [2] the test system is adult rat cardiac fibroblasts. Nature of the experiment: Cardiac fibroblast proliferation, cell count in Neubauer chamber. It counts as cell-based. To be noted: DMEM F-12 5% FBS, 24 h, trypan blue cell count. On the procedure: Male Sprague-Dawley rats (250-300 g) were anesthetized with ketamine-xylazine (66 and 1.6 mg/kg i.p., respectively). Adult rat cardiac fibroblasts were isolated by retrograde aortic perfusion. Briefly, hearts were digested with collagenase type B solution for 1 h, and cells were centrifuged at 500 rpm for 2 min. The supernatant, mainly adult rat cardiac fibroblasts, was centrifuged at 1000 rpm for 10 min, resuspended in Dulbecco's Modified Eagle Medium: Nutrient Mixture F-12 (DMEM F-12) plus 15% fetal bovine serum (FBS) and then seeded in nontreated culture dishes during 3 h. Cells were washed with phosphate buffered saline to eliminate debris and nonadherent cells. Adult rat cardiac fibroblasts were used at passage one and seeded on 60 mm cell culture dishes in DMEM F-12 plus 10% FBS and incubated at […] for 3 h. To synchronize cells, they were washed and incubated in DMEM F-12 (without serum, 0% FBS) for 24 h before experimentation. Cell proliferation was determined in cardiac fibroblasts incubated for 24 h with and without retro-inverse angiotensin-(1-9) in DMEM F-12 5% FBS. Cells were trypsinized and cell number was determined using trypan blue method in a Neubauer chamber.

Experiment [3] relates to spontaneously hypertensive rats (SHR). Put plainly: β-MHC protein level in left ventricle of SHR (cardiac hypertrophy). To be noted: SHR, 1,200 ng/kg/min, 14 days, left ventricle western blot. It counts as in vivo, rat. On the procedure: Experimental animal model. All procedures were performed in accordance with the Guide for the Care and Use of Laboratory Animals published by the U.S. National Institutes of Health (NIH Publication 85 23, 1985) and approved by our Institutional Bioethics Committee. The animals were housed under the continuous professional monitoring of the Medical Veterinary staff in the animal facility of the Pontificia Universidad Católica de Chile, under the following conditions: 12-h light-dark cycle; 21° C. ambient temperature; 50% humidity; adequate ventilation; noise-free environment; and food and water ad libitum. Male spontaneously hypertensive rats (SHR, age 12 weeks) and normotensive Wistar Kyoto rats (WKY, 12 weeks age) were used. […] Systolic blood pressure (SBP), diastolic blood pressure (DBP) and body weight (BW) were measured at the end of the treatment period and the animals were then sacrificed.
Measurement of β-MHC protein level to assess cardiac hypertrophy. β-MHC protein levels were determined by Western blotting. […] Digital images obtained from the photographic films were analyzed by densitometry using Image J software (NIH, USA). […]
Background: In western blotting, separated proteins are transferred to a membrane and probed.

Where a SMILES comes first, the peptide text is derived from it. [ ]: non-standard residue; d: D form.

`CC[C@@H](C)[C@@H](NC(=O)[C@@H](Cc1c[nH]cn1)NC(=O)[C@H]1CCCN1C(=O)[C@@H](Cc1ccccc1)NC(=O)[C@H](N)Cc1c[nH]cn1)C(=O)N[C@H](Cc1ccc(O)cc1)C(=O)N[C@@H](C(=O)N[C@H](CCCNC(=N)N)C(=O)N[C@H](CC(=O)O)C(=O)O)C(C)C` [retro-inverse angiotensin-(1-9), NH2-^DH^DF^DP^DH^DI^DY^DV^DR^DD-COOH] (H-[dH][dF][dP][dH][dI][dY][dV][dR][dD]-OH): the “decrease of infarct size” value in experiment [1] was “around 70%”. For the same compound, the fibroblast proliferation entry in experiment [2] is on record as “inhibited fibroblast proliferation”. In addition, the “increase in β-MHC induced by hypertension” value in experiment [3] was “reversed the increase”.

The values are drawn from US20250206779A1, “ANGIOTENSIN-(1-9) ANALOGUE BASED ON D AMINO ACIDS, PHARMACEUTICAL COMPOSITIONS AND USES THEREOF” (UNIVERSIDAD DE CHILE, priority 2021, published 2025).
